Where “and” joins values, the source holds several entries; their conditions need not be identical. Equal entries are not always repeated.

One series has as its system T. cruzi epimastigotes. The series can be described thus: In vitro activity on T. cruzi epimastigotes, counting viable parasites. It counts as cell-based, Trypanosoma cruzi. As to conditions: for IC50: Trypanosoma cruzi, 72 h, 28 °C, read-out: T. cruzi epimastigotes IC50 ± SD; for activity on T. cruzi epimastigotes, in words: free-living form; for T. cruzi epimastigotes SI: selectivity index CC50/IC50. As to the method:
(§1) Epimastigotes of T. cruzi and promastigotes forms of L. […] The inhibition of parasite growth was microscopically determined by counting viable (live) parasites in a haemocytometer using yellow eosin as vital dye; live parasites (uncolored) and dead (orange) were counted. All of the experiments were performed with parasites in their logarithmic phase of growth. […] Negative controls were used without the drug (culture medium alone) in each experiment. […] The data were calculated by linear regression using the software ([…]; GO Business Solution, Guildford, UK). The selectivity index (SI) was calculated dividing CC50/IC50. Each experiment was repeated twice and the values represent the results of one representative experiment. […] The analysis to determine the statistical differences in biological activity was performed using the analysis of variance (ANOVA) and the Bonferroni post-test. We also performed Student's t test for comparison between the two variables, using GraphPad Prism software version 5.03.

Series [1] in a line: Mammalian cell toxicity, MTT, Vero cells. The class given is cell-based. As to conditions: African green monkey, Vero cells, 72 h, MTT; for CC50 at 72 h: read-out: Mammalian cells Vero CC50 ± SD. The method, then:
(§2) Vero cells and THP-1 cells transformed into adherent macrophages with PMA in 96 microwell plates where they were treated with compounds (0-350 μM) during 72 h at 37 °C, 5% CO2-95% air mixture. The viability of the cells was evaluated by using the tetrazolium-dye (MTT) colorimetric method. After incubation of the cells with the MTT (5mg/mL) reagent for 4 hours, DMSO was added. The samples were read using an ELISA plate reader at a wavelength of 580 nm. The amount of color produced is directly proportional to the number of viable cells. The percentage of cytotoxicity was calculated by the equation: cytotoxicity (%) = (OD control group-OD treatment group)/OD control group × 100 [31]. […] The data were calculated by linear regression using the software ([…]; GO Business Solution, Guildford, UK). The selectivity index (SI) was calculated dividing CC50/IC50. Each experiment was repeated twice and the values represent the results of one representative experiment. […] The analysis to determine the statistical differences in biological activity was performed using the analysis of variance (ANOVA) and the Bonferroni post-test. We also performed Student's t test for comparison between the two variables, using GraphPad Prism software version 5.03.

Series [2] is described as follows: Mammalian cell toxicity, MTT, THP-1 cells. As to conditions: human, THP-1 cells transformed into adherent macrophages with PMA, 72 h, MTT; for CC50 at 72 h: read-out: Mammalian cells THP-1 CC50 ± SD. The class given is cell-based. The method, then:
as §2

In another series the test system is THP-1 cells. The series can be described thus: Mammalian cell toxicity, MTT, THP-1 cells. It counts as cell-based. The method, then:
as §2

Series [3] concerns L. (L.) infantum promastigotes. Kind of series: In vitro activity on L. (L.) infantum promastigotes, counting viable parasites. The class given is cell-based, Leishmania (Leishmania) infantum. As to conditions: for IC50: Leishmania infantum, 72 h, 28 °C, read-out: L. (L) infantum promastigotes IC50 ± SD; for activity on L. (L.) infantum promastigotes, in words: free-living form; for L. (L) infantum promastigotes SI: selectivity index CC50/IC50. The method, then: as §1

Series [4] deals with T. cruzi intracellular amastigotes. The series can be described thus: Intracellular amastigotes of T. cruzi in Vero cells. The class given is cell-based, Trypanosoma cruzi. The method, then: (§3) For the amastigotes assays, adherent Vero cells or THP-1 macrophages (after transformation with 10 ng/mL PMA) were infected with tissue-derived trypomastigotes or stationary phase promastigotes, respectively, at a ratio of 10:1 and maintained in a 5% CO2-95% air mixture at 37 °C. After 24 h, infected cultures with >50% of infected cells were incubated with the compounds (from 3–300 μM) in a three-fold dilution series for 72 h. Drug activity was determined from the % of infected cells in treated and untreated cultures in fixed methanol and Giemsa stained preparations. Parasites’ assays were performed twice and each tested concentration was tested in triplicate.
(§4) Negative controls were used without the drug (culture medium alone) in each experiment.
(§5) The data were calculated by linear regression using the software (Msxlfit; GO Business Solution, Guildford, UK). The selectivity index (SI) was calculated dividing CC50/IC50. Each experiment was repeated twice and the values represent the results of one representative experiment. […] The analysis to determine the statistical differences in biological activity was performed using the analysis of variance (ANOVA) and the Bonferroni post-test. We also performed Student’s t test for comparison between the two variables, using GraphPad Prism software version 5.03. P values <0.05 were considered to be statistically significant.

The subject of series [5] is L.(V.) panamensis intracellular amastigotes. The series can be described thus: Intracellular amastigotes of L. (V.) panamensis in THP-1 macrophages. The class given is cell-based, Leishmania (Viannia) panamensis. As to the method: as §3, §4, §5
The subject of series [6] is L. (L.) infantum intracellular amastigotes. Kind of series: Intracellular amastigotes of L. (L.) infantum infecting THP-1 macrophages. The class given is cell-based, Leishmania (Leishmania) infantum. As to the method: as §3, §4, §5
The test system of series [7] is L. (L.) amazonensis intracellular amastigotes. Kind of series: Intracellular amastigotes of L. (L.) amazonensis in THP-1 macrophages. It counts as cell-based, Leishmania (Leishmania) amazonensis. The method, then: as §3, §4, §5
The next series concerns Vero cells. Kind of series: Mammalian cell toxicity, MTT, Vero cells. The class given is cell-based. The method, then: as §2

For `O=C(CCl)N(CCCCN(Cc1ccccc1)C(=O)CCl)Cc1ccccc1` [compound 8], in the series on T. cruzi epimastigotes, the IC50 is 0.02 ± 0.004 µM and the “activity on T. cruzi epimastigotes, in words” value is reported as “active”. Also, the 50% cytotoxic concentration (CC50) at 72 h in [1] was greater than 250 µM. Also, in series [2], the CC90 at 72 h is greater than 208 µM and the CC50 at 72 h turned out to be 25.1 ± 0.35 µM. For the same compound, the “toxicity on THP-1 cells, in words” value in the series with THP-1 cells is on record as “partially toxic”. Also, in [3], the IC50 was found to be 3.91 ± 0.01 µM; the “activity on L. (L.) infantum promastigotes, in words” value is given as “active”; the “L. (L) infantum promastigotes SI” value came out at 6.4.
Turning to `c1ccc(CNCCNCc2ccccc2)cc1` [5a, N^1,N^2-dibenzylethane-1,2-diamine], the 50% inhibitory concentration (IC50) was 2.54 ± 0.08 µM in the series with T. cruzi epimastigotes; 131.2 ± 0.92 µM in series [4] (Trypanosoma cruzi, Vero cells, 72 h, 98.1% cells infected before treatment); 58.2 ± 3.23 µM in [5] (THP-1 macrophages, 72 h, 78.3% cells infected before treatment); 25.4 ± 0.33 µM in series [6] (Leishmania infantum, THP-1 macrophages, 72 h, 48.58% cells infected before treatment); 12.2 ± 2.45 µM in [3]; 49.3 ± 4.7 µM in series [7] (Leishmania amazonensis, THP-1 macrophages, 72 h, 58.6% cells infected before treatment). Besides, the “activity on T. cruzi epimastigotes, in words” value in the series with T. cruzi epimastigotes is listed as “active”. In addition, the IC90 is greater than 123 µM in series [4] (Trypanosoma cruzi, Vero cells, 72 h); 88.1 ± 1.85 µM in series [5] (THP-1 macrophages, 72 h); 59.5 ± 2.78 µM in [6] (Leishmania infantum, THP-1 macrophages, 72 h); 131 ± 9.14 µM in [7] (Leishmania amazonensis, THP-1 macrophages, 72 h). Further, in [4] (selectivity index CC50/IC50), the “T. cruzi intracellular amastigotes SI” value was 0.48. The “activity on intracellular amastigotes of L. panamensis, in words” value in series [5] is “partially active (partially active with IC50 >25 μM and IC90 <100 μM)”. For the same compound, the “L.(V.) panamensis intracellular amastigotes SI” value in series [5] (selectivity index CC50/IC50) was determined as 5. In series [6] (selectivity index CC50/IC50), the “L. (L.) infantum intracellular amastigotes SI” value is 9.39 and 9. The CC50 at 72 h in series [1] turned out to be 75.3 ± 2.57 µM; in series [2], 239 ± 17.9 µM. In addition, the “activity on L. (L.) infantum promastigotes, in words” value in series [3] is reported as “active”. The “L. (L) infantum promastigotes SI” value in series [3] is given as 19.58. In series [7] (selectivity index CC50/IC50), the “L. (L.) amazonensis intracellular amastigotes SI” value was determined as 6.
With `O=C(CCl)NCCCCNC(=O)CCl` [7c], in the series on T. cruzi epimastigotes, the IC50 came to 54.2 ± 1.16 µM and the “T. cruzi epimastigotes SI” value amounted to 0.68. Also, in [1], the CC90 at 72 h is 77.6 ± 3.15 µM and the CC50 at 72 h was 37.1 ± 0.45 µM. Besides, the “toxicity on Vero cells, in words” value in the series on Vero cells is given as “toxic”. Besides, the CC50 at 72 h in [2] was 366 µM. Moreover, in series [3], the half-inhibitory concentration (IC50) amounted to 132 ± 7.63 µM and the “L. (L) infantum promastigotes SI” value amounted to 2.76.
Take `O=C(CCl)NCCNC(=O)CCl` [7a]: in the series on T. cruzi epimastigotes, the IC50 is 65.9 ± 5.54 µM and the “T. cruzi epimastigotes SI” value is reported as 0.38. In addition, in series [1], the CC90 at 72 h worked out at 49.5 ± 1.87 µM and the cytotoxic concentration (CC50) at 72 h was found to be 25.7 ± 1.22 µM. Besides, the “toxicity on Vero cells, in words” value with Vero cells is “toxic”. For the same compound, the CC50 at 72 h in [2] is greater than 300 µM. Also, in [3], the IC50 turned out to be 176 ± 19 µM and the “L. (L) infantum promastigotes SI” value is listed as greater than 2.66.

A word on the IC50: it is the midpoint of a concentration-inhibition curve. As usually defined, the CC50 is the concentration giving 50% cytotoxicity. In general, IC90 refers to the concentration needed for an effect of 90%. A higher IC90 goes with a need for much substance.

The record behind these values is paper PMC3617668, “In Vitro Antileishmanial, Trypanocidal, and Mammalian Cell Activities of Diverse N,N′ -Dihetaryl Substituted Diamines and Related Compounds” (Scientia Pharmaceutica, 2012).
